Values of other authors, collected in patent US20210198372A1, “METHODS FOR DOSING AND FOR MODULATION OF GENETICALLY ENGINEERED CELLS” (Juno Therapeutics, Inc., priority 2017, published 2021).

Conditions: equivalence in terms of potency for various glucocorticoids; route (IV or PO; IV; none)

Compound	Equivalency Potency
C[C@]12CCC(=O)C=C1CC[C@@H]1[C@@H]2[C@@H](O)C[C@@]2(C)[C@H]1CC[C@]2(O)C(=O)CO [Hydrocortisone]	20
C[C@H]1C[C@@H]2[C@H]([C@@H](O)C[C@@]3(C)[C@H]2CC[C@]3(O)C(=O)COC(=O)CCC(=O)O)[C@@]2(C)C=CC(=O)C=C12 [Methylprednisolone sodium succinate]	4
C[C@]12C=CC(=O)C=C1CC[C@@H]1[C@@H]2[C@@H](O)C[C@@]2(C)[C@H]1CC[C@]2(O)C(=O)CO [Prednisolone]	5
